Assay results from patent US20240002395A1, “COMPOUNDS AND THEIR USE FOR TREATING NEUROPATHIC PAIN” (The Johns Hopkins University, priority 2020, published 2024).

Assays:
human MrgprX1 = biological target: T1, human MrgprX1 (Homo sapiens, UniProt Q96LB2); test: MrgprX1 positive allosteric modulator (PAM) calcium FLIPR assay in HEK293 cells; format: cell-based; conditions: PAM activity in presence of EC20 concentration of BAM8-22; HEK293 cells stably transfected with human MrgprX1
T1 construct: expressed in transfected cells
T1 sequence (Q96LB2 whole entry): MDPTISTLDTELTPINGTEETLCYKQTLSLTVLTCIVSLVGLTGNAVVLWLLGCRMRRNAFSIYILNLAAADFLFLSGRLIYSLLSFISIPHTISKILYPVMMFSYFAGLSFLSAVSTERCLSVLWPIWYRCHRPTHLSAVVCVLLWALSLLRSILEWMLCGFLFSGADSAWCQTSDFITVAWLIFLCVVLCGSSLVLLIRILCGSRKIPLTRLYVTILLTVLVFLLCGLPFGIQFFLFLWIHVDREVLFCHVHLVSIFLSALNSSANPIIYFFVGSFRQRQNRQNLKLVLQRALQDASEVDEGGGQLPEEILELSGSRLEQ
Procedure: HEK293 cells stably transfected with human MrgprX1 were plated onto poly-D-lysine-coated, black-walled, 96-well plates at a seeding density of 12,000 cells/well and grown for two days. On the day of the experiment, cells were incubated with Fluo-4 AM 2 μM, pluronic acid 0.04% and Trypan Red 1% in HBSS (pH 7.4, 100 μL) for 1 h at 37° C. For each different passage of cells, a BAM8-22 dose response was first conducted and the BAM8-22 EC20 determined. Test compounds were then dissolved and serially diluted in DMSO, further diluted with Trypan Red (1%)-containing HBSS (50 μL) and added to cells (0.33% DMSO concentration by volume) to first monitor for agonist activity. After 2.5 min, BAM8-22 at 4-fold EC20 (50 μL) was added to cells (0.25% DMSO concentration by volume) and the cells imaged on the FLIPR for an additional 2 minutes to monitor the test compounds for PAM activity. Finally, data were normalized to fluorescence signals obtained from 250 nM of BAM8-22 (maximum) and BAM8-22 at its EC20 concentration (minimum). EC50 of a test compound was defined as the concentration required to provoke a response halfway between the minimum and maximum response in the presence of EC20 concentration of BAM8-22.

[1] = Metabolic stability in mouse liver microsomes; format: in vitro ADME; conditions: mouse liver microsomes 0.5 mg/mL, NADPH, compound 5 μM, 60 min
Procedure: (§1) The metabolic stability was evaluated using mouse liver microsomes. For the cytochrome P450 (CYP)-mediated metabolism, the reaction was carried out with 100 mM potassium phosphate buffer, pH 7.4, in the presence of NADPH regenerating system (1.3 mM NADPH, 3.3 mM glucose 6-phosphate, 3.3 mM MgCl2, 0.4 U/mL glucose-6-phosphate dehydrogenase, 50 μM sodium citrate). Reactions, in triplicate, were initiated by addition of the liver microsomes to the incubation mixture (compound final concentration was 5 μM; 0.5 mg/mL microsomes). After 60 min of incubation, aliquots of the mixture were removed and the reaction quenched by addition of three times the volume of ice-cold acetonitrile spiked with the internal standard. Compound disappearance was monitored over time using a liquid chromatography and tandem mass spectrometry (LC/MS/MS) method.

[2] = Metabolic stability in human liver microsomes; format: in vitro ADME
Procedure: [The procedure below names another species; the source lists this species under the same test.] as §1

SMILES	EC50 (human MrgprX1)	% remaining after 1-h incubation, Mouse [1]	% remaining after 1-h incubation, Human [2]	melting point
CC(C)(C)c1sc2ncnc(Oc3c(F)cccc3OC(F)(F)F)c2c1-c1ccc(F)c(F)c1 [Compound 7al, 6-tert-butyl-5-(3,4-difluorophenyl)-4-(2-fluoro-6-(trifluoromethoxy)phenoxy)thieno[2,3-d]pyrimidine]	20 nM	>95%	>95%	150 °C
CC(C)(C)c1sc2ncnc(Oc3c(F)cccc3OC(F)(F)F)c2c1-c1ccc(Cl)cc1 [Compound 7ao, 6-tert-butyl-5-(4-chlorophenyl)-4-(2-fluoro-6-(trifluoromethoxy)phenoxy)thieno[2,3-d]pyrimidine]	10 nM	>95%	>95%	
Cc1ccccc1Oc1ncnc2sc(C)c(C)c12 [Compound 7az, 5,6-dimethyl-4-(o-tolyloxy)thieno[2,3-d]pyrimidine]	500 nM	<5%		107 °C
CC(C)(C)c1sc2ncnc(Oc3c(F)cccc3OC(F)(F)F)c2c1-c1ccc(Cl)c(Cl)c1 [Compound 7b, 6-tert-butyl-5-(3,4-dichlorophenyl)-4-(2-fluoro-6-(trifluoromethoxy)phenoxy)thieno[2,3-d]pyrimidine]	50 nM	74%	>95%	134 to 137 °C
Cc1sc2ncnc(Oc3ccccc3F)c2c1C [Compound 7ba, 4-(2-fluorophenoxy)-5,6-dimethylthieno[2,3-d]pyrimidine]	200 nM	<5%	<5%	144 °C
CC(C)(C)c1cc2c(Oc3ccccc3F)ncnc2s1 [Compound 7bc, 6-(tert-butyl)-4-(2-fluorophenoxy)thieno[2,3-d]pyrimidine]	400 nM	<5%	61%	
CC(C)(C)c1sc2ncnc(Oc3c(F)cccc3F)c2c1N1CCOCC1 [Compound 7bi, 4-(6-(tert-butyl)-4-(2,6-difluorophenoxy)thieno[2,3-d]pyrimidin-5-yl)morpholine]	40 nM			173 °C
CCN(CC)c1c(C(C)(C)C)sc2ncnc(Oc3c(F)cccc3OC(F)(F)F)c12 [Compound 7bj, 6-(tert-butyl)-N,N-diethyl-4-(2-fluoro-6-(trifluoromethoxy)phenoxy)thieno[2,3-d]pyrimidin-5-amine]	70 nM			72 °C
CC(C)(C)c1oc2ncnc(Oc3c(F)cccc3OC(F)(F)F)c2c1C(=O)N1CCCCC1 [Compound 7bk, (6-(tert-butyl)-4-(2-fluoro-6-(trifluoromethoxy)phenoxy)furo[2,3-d]pyrimidin-5-yl)(piperidin-1-yl)methanone]	100 nM			159 to 161 °C
CC(C)(C)c1sc2ncnc(Oc3c(Cl)cccc3OC(F)(F)F)c2c1-c1ccc(Cl)c(Cl)c1 [Compound 7c, 6-tert-butyl-4-(2-chloro-6-(trifluoromethoxy)phenoxy)-5-(3,4-dichlorophenyl)thieno[2,3-d]pyrimidine]	300 nM			66 °C
CC(C)(C)c1sc2ncnc(Oc3cccc(OC(F)(F)F)c3)c2c1-c1ccc(Cl)c(Cl)c1 [Compound 7d, 6-tert-butyl-5-(3,4-dichlorophenyl)-4-(3-(trifluoromethoxy)phenoxy)thieno[2,3-d]pyrimidine]	> 10000 nM			121 °C
CC(C)(C)c1sc2ncnc(Oc3ccc(OC(F)(F)F)cc3)c2c1-c1ccc(Cl)c(Cl)c1 [Compound 7e, 6-tert-butyl-5-(3,4-dichlorophenyl)-4-(4-(trifluoromethoxy)phenoxy)thieno[2,3-d]pyrimidine]	> 100000 nM			103 °C
CC(C)(C)c1sc2ncnc(Oc3cccnc3F)c2c1-c1ccc(Cl)c(Cl)c1 [Compound 7g, 6-tert-butyl-5-(3,4-dichlorophenyl)-4-(2-fluoropyridin-3-yloxy)thieno[2,3-d]pyrimidine]	1000 nM			164 °C
CC(C)(C)c1sc2ncnc(Oc3cccnc3OC(F)(F)F)c2c1-c1ccc(Cl)c(Cl)c1 [Compound 7h, 6-tert-butyl-5-(3,4-dichlorophenyl)-4-(2-(trifluoromethoxy)pyridin-3-yloxy)thieno[2,3-d]pyrimidine]	4000 nM			117 °C
CC(C)(C)c1sc2ncnc(Oc3cccnc3N)c2c1-c1ccc(Cl)c(Cl)c1 [Compound 7j, 3-(6-tert-butyl-5-(3,4-dichlorophenyl)thieno[2,3-d]pyrimidin-4-yloxy)pyridin-2-amine]	30000 nM			207 °C
CC(C)(C)c1sc2ncnc(Oc3ccnnc3)c2c1-c1ccc(Cl)c(Cl)c1 [Compound 7k, 6-tert-butyl-5-(3,4-dichlorophenyl)-4-(pyridazin-4-yloxy)thieno[2,3-d]pyrimidine]	> 100000 nM			186 °C
CC(C)(C)c1sc2ncnc(Oc3ccccc3)c2c1-c1ccc(Cl)c(Cl)c1 [Compound 7l, 6-tert-butyl-5-(3,4-dichlorophenyl)-4-phenoxythieno[2,3-d]pyrimidine]	600 nM			148 °C
CC(C)(C)c1sc2ncnc(Oc3ccccc3F)c2c1-c1ccc(Cl)c(Cl)c1 [Compound 7m, 6-tert-butyl-5-(3,4-dichlorophenyl)-4-(2-fluorophenoxy)thieno[2,3-d]pyrimidine]	100 nM			163 °C
CC(C)(C)c1sc2ncnc(Oc3cccc(F)c3)c2c1-c1ccc(Cl)c(Cl)c1 [Compound 7o, 6-tert-butyl-5-(3,4-dichlorophenyl)-4-(3-fluorophenoxy)thieno[2,3-d]pyrimidine]	> 100000 nM			144 °C
CC(C)(C)c1sc2ncnc(Oc3ccc(F)cc3)c2c1-c1ccc(Cl)c(Cl)c1 [Compound 7p, 6-tert-butyl-5-(3,4-dichlorophenyl)-4-(4-fluorophenoxy)thieno[2,3-d]pyrimidine]	2000 nM			179 °C
COc1ccccc1Oc1ncnc2sc(C(C)(C)C)c(-c3ccc(Cl)c(Cl)c3)c12 [Compound 7q, 6-tert-butyl-5-(3,4-dichlorophenyl)-4-(2-methoxyphenoxy)thieno[2,3-d]pyrimidine]	700 nM			136 °C
CCOc1ccccc1Oc1ncnc2sc(C(C)(C)C)c(-c3ccc(Cl)c(Cl)c3)c12 [Compound 7r, 6-tert-butyl-5-(3,4-dichlorophenyl)-4-(2-ethoxyphenoxy)thieno[2,3-d]pyrimidine]	1000 nM			119 °C
CC(C)(C)c1sc2ncnc(Oc3ccccc3OCC(F)(F)F)c2c1-c1ccc(Cl)c(Cl)c1 [Compound 7s, 6-tert-butyl-5-(3,4-dichlorophenyl)-4-(2-(2,2,2-trifluoroethoxy)phenoxy)thieno[2,3-d]pyrimidine]	1000 nM			136 °C
Cc1ccccc1Oc1ncnc2sc(C(C)(C)C)c(-c3ccc(Cl)c(Cl)c3)c12 [Compound 7t, 6-tert-butyl-5-(3,4-dichlorophenyl)-4-(o-tolyloxy)thieno[2,3-d]pyrimidine]	400 nM			151 °C
CC(=O)c1ccccc1Oc1ncnc2sc(C(C)(C)C)c(-c3ccc(Cl)c(Cl)c3)c12 [Compound 7u, 1-(2-(6-tert-butyl-5-(3,4-dichlorophenyl)thieno[2,3-d]pyrimidin-4-yloxy)phenyl)ethanone]	3000 nM			60 °C
CC(C)Oc1ncnc2sc(C(C)(C)C)c(-c3ccc(Cl)c(Cl)c3)c12 [Compound 7w, 6-tert-butyl-5-(3,4-dichlorophenyl)-4-isopropoxythieno[2,3-d]pyrimidine]	> 10000 nM			165 °C
CC(C)(C)c1sc2ncnc(OC3CC3)c2c1-c1ccc(Cl)c(Cl)c1 [Compound 7x, 6-tert-butyl-4-cyclopropoxy-5-(3,4-dichlorophenyl)thieno[2,3-d]pyrimidine]	> 10000 nM			172 °C
CC(C)(C)c1sc2ncnc(OC3CCC3)c2c1-c1ccc(Cl)c(Cl)c1 [Compound 7y, 6-tert-butyl-4-cyclobutoxy-5-(3,4-dichlorophenyl)thieno[2,3-d]pyrimidine]	7000 nM			146 °C
CC(C)(C)c1sc2ncnc(OC3CCCC3)c2c1-c1ccc(Cl)c(Cl)c1 [Compound 7z, 6-tert-butyl-4-(cyclopentyloxy)-5-(3,4-dichlorophenyl)thieno[2,3-d]pyrimidine]	6000 nM			112 °C
